Measurements as given in the METLIN SMRT retention time set (Domingo-Almenara et al. 2019).

Assay: gradient 5% acetonitrile 3 min, to 50% in 2 min, to 85% in 15 min, held 3 min, 100 µL/min
Conditions: column: Zorbax Extend-C18 2.1 x 50 mm; eluents: water / acetonitrile, 0.1% formic acid
Outline: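 Retention times come from adduct peaks that were picked computationally and then checked by hand. The standards, pure and pooled in mixtures of ~100 molecules, were run on a Zorbax Extend-C18 column (2.1 × 50 mm, 1.8 μm) at 100 μL/min with water and acetonitrile, each with 0.1% formic acid. Detection was by quadrupole time-of-flight mass spectrometry in positive and negative ionization mode, with a dead volume of 40 μL and a dwell volume of 900 μL.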

Which RP-LC retention time does the source give for `O=S(=O)(c1ccc2c(c1)CCC2)N1CCCC1c1noc(CO)n1` (stereo unspecified) here?
The RP-LC retention time was 779 s.

With `CC(Cc1ccco1)NC(=O)CCCn1c(=O)c2cccn2c2ccc(Br)cc21` (stereo unspecified) as the compound, how does the RP-LC retention time read?
The RP-LC retention time was 924 s.

For `COc1ccc(Br)c2c1-c1nc(NC(=O)c3ccccc3)sc1C2`, which RP-LC retention time is on record?
Its RP-LC retention time is 1130 s.

For `CCOc1ccc(-c2nc(-c3ccc4c(c3)oc(=O)n4C(C)C)no2)cc1`, which RP-LC retention time is on record?
Its RP-LC retention time is 1230 s.

With `Cc1ccccc1-c1nc2cnccn2c1NCCC(=O)NC(C)c1cccs1` (stereo unspecified) as the compound, how does the RP-LC retention time read?
The RP-LC retention time was 659 s.

Which RP-LC retention time does the source give for `O=C1CC(c2noc(-c3ccccc3)n2)CN1c1ccc(Cl)cc1` (stereo unspecified) here?
The RP-LC retention time was 1040 s.

With `CCN1c2ccc(C)cc2C(=O)NC12CCN(C(=O)c1cccc(Cl)c1)CC2` as the compound, how does the RP-LC retention time read?
The RP-LC retention time was 603 s.

With `O=C(C1CCN(c2cncnc2N2CCOCC2)CC1)N1CCOCC1` as the compound, how does the RP-LC retention time read?
The RP-LC retention time was 556 s.

With `CCn1ccc(NC(=O)c2cc(C)ccc2C)n1` as the compound, how does the RP-LC retention time read?
Its RP-LC retention time is 733 s.

For `CCC(C)Sc1nnc(NC(=O)C2CCN(C(=O)c3ccccc3)CC2)s1` (stereo unspecified), which RP-LC retention time is on record?
The RP-LC retention time was 854 s.

For `COc1cc(-c2nc(C3CC(=O)N(c4ccc(C)cc4)C3)no2)cc(OC)c1OC` (stereo unspecified), which RP-LC retention time is on record?
Its RP-LC retention time is 834 s.

For `CCN1CCN(C(=O)CN2C(=O)CSc3ccc(C(=O)N4CCCCC4)cc32)CC1`, which RP-LC retention time is on record?
Its RP-LC retention time is 608 s.

Which RP-LC retention time does the source give for `CCN(CC)C(=O)c1cc2c(s1)N(CC1CC1)CCCC2` here?
Its RP-LC retention time is 1180 s.

For `COc1ccccc1NC(=O)Cn1nc2c(Oc3ccccc3Cl)nccn2c1=O`, which RP-LC retention time is on record?
The RP-LC retention time was 908 s.

With `CC(C)n1c(CCNC(=O)Cc2ccsc2)nc2cccnc21` as the compound, how does the RP-LC retention time read?
The RP-LC retention time was 624 s.

With `COc1ccc(NC(=O)C2CCN(c3nnc(-c4ccc(OC)cc4)o3)CC2)cc1` as the compound, how does the RP-LC retention time read?
Its RP-LC retention time is 824 s.

For `O=c1n(CC2CC2)nc2n1CCN(S(=O)(=O)Cc1ccccc1)CC2`, which RP-LC retention time is on record?
The RP-LC retention time was 741 s.

With `CCOC(=O)C1CCN(C(=O)Cn2c3ccccc3c3cnn(C)c(=O)c32)CC1` as the compound, how does the RP-LC retention time read?
The RP-LC retention time was 775 s.

With `Cc1ccc(NC(=O)C2CCN(S(=O)(=O)c3ccc4c(c3)CCCC(=O)N4)CC2)cc1F` as the compound, how does the RP-LC retention time read?
Its RP-LC retention time is 817 s.

Which RP-LC retention time does the source give for `Cc1ccc(-n2c(Cc3cccn3C)nnc2SCC(=O)NCC2CCCO2)cc1` (stereo unspecified) here?
The RP-LC retention time was 744 s.

For `CC1=C(c2ccccc2)S(=O)(=O)N=C1N1CCCN(C(=O)c2ccc(F)cc2F)CC1`, which RP-LC retention time is on record?
The RP-LC retention time was 835 s.

For `Cc1cc(NC(=O)c2ccccc2-c2nc(-c3ccccc3)no2)no1`, which RP-LC retention time is on record?
Its RP-LC retention time is 925 s.

Which RP-LC retention time does the source give for `CN1C(=O)[C@]2(CO)SSC1(Cc1cn([C@]34C[C@@]56SS[C@@](CO)(C(=O)N5[C@H]3Nc3ccccc34)N(C)C6=O)c3ccccc13)C(=O)N2C` here?
The RP-LC retention time was 898 s.

With `CCc1ccccc1NC(=O)C1CCN(S(=O)(=O)c2c(C)[nH]c(C)c2C(=O)N2CCCC2)CC1` as the compound, how does the RP-LC retention time read?
Its RP-LC retention time is 726 s.

With `Cc1ccc(S(=O)(=O)CCc2nc(-c3cccc(-c4ccnn4C)c3)no2)cc1` as the compound, how does the RP-LC retention time read?
Its RP-LC retention time is 910 s.

Which RP-LC retention time does the source give for `Cc1ccc(-n2nc(N3CCN(C(=O)Nc4cc(F)ccc4F)CC3)ccc2=O)cc1` here?
Its RP-LC retention time is 834 s.

For `CCOc1ccccc1-c1noc(-c2nnn(Cc3nc(-c4cccc(C)c4)oc3C)c2C)n1`, which RP-LC retention time is on record?
The RP-LC retention time was 1260 s.

For `O=C(c1ccc(-n2cccn2)nc1)N1CCSCC1`, which RP-LC retention time is on record?
The RP-LC retention time was 714 s.

Which RP-LC retention time does the source give for `Cc1ccc(-c2nc3ccc(Cl)cn3c2Nc2ccc3c(c2)OCO3)cc1` here?
The RP-LC retention time was 708 s.

Which RP-LC retention time does the source give for `Cc1cccc(-c2nc(Cn3nnc(-c4nc(-c5ccc(F)cc5)no4)c3C)c(C)o2)c1` here?
The RP-LC retention time was 1300 s.

Which RP-LC retention time does the source give for `Cc1ccc(C(=O)NCc2ccc(N3CCCC3)nc2)s1` here?
Its RP-LC retention time is 601 s.

For `Cc1oc2ccn(Cc3ccccc3F)c(=O)c2c1C(=O)NCc1ccccc1`, which RP-LC retention time is on record?
Its RP-LC retention time is 1070 s.

For `CC(C)(C)N(CC(=O)N(Cc1ccco1)CC1CCCO1)C(=O)Cc1ccccc1` (stereo unspecified), which RP-LC retention time is on record?
The RP-LC retention time was 907 s.

Which RP-LC retention time does the source give for `O=C(c1c(F)cccc1F)N1CCN=C1SCc1cccnc1` here?
The RP-LC retention time was 582 s.

With `CCN(CC)CCNC(=O)c1nnc(-c2oc3c(C)cccc3c2C)o1` as the compound, how does the RP-LC retention time read?
Its RP-LC retention time is 683 s.

With `COc1ccc(-c2nc(-c3cccc(-c4ccnn4C)c3)no2)c(OC)c1` as the compound, how does the RP-LC retention time read?
The RP-LC retention time was 1030 s.
